Values joined by “and” are separate entries in the source; they are usually repeats but may differ in a detail not shown here. Equal entries are not always repeated. Inconclusive results and toxic doses are left out. Rule for the calls: active = survival T/C of 150% or more; inactive = T/C below 125% in these data.
Tested on: CD2F1 mice, L1210 leukemia ip, survival T/C
Experiment: NCI In Vivo Anticancer Drug Screen. Data for tumor model L1210 Leukemia (intraperitoneal) in CD2F1 (CDF1) mice
Conditions: higher = longer survival
Summary of the method: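 Compound-dosed mice with transplantable tumor versus matched vehicle controls; endpoint ratio T/C reported.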

[1] = endpoint: mean survival time, dose: 100.0 mg/kg/injection, schedule: Q01DX009 (ip), vehicle: saline with Tween-80
[2] = endpoint: mean survival time, dose: 200.0 mg/kg/injection, schedule: Q01DX009 (ip), vehicle: saline with Tween-80
[3] = endpoint: mean survival time, dose: 400.0 mg/kg/injection, schedule: Q01DX009 (ip), vehicle: saline with Tween-80
[4] = endpoint: mean survival time, dose: 100.0 mg/kg/injection, schedule: Q04DX003 (ip), vehicle: saline with Tween-80
[5] = endpoint: mean survival time, dose: 200.0 mg/kg/injection, schedule: Q04DX003 (ip), vehicle: saline with Tween-80
[6] = endpoint: mean survival time, dose: 400.0 mg/kg/injection, schedule: Q04DX003 (ip), vehicle: saline with Tween-80
[7] = endpoint: mean survival time, dose: 100.0 mg/kg/injection, schedule: Q01DX001 (ip), vehicle: saline with Tween-80
[8] = endpoint: mean survival time, dose: 200.0 mg/kg/injection, schedule: Q01DX001 (ip), vehicle: saline with Tween-80
[9] = endpoint: mean survival time, dose: 400.0 mg/kg/injection, schedule: Q01DX001 (ip), vehicle: saline with Tween-80
[10] = endpoint: mean survival time, dose: 100.0 mg/kg/injection, schedule: Q04DX003 (ip), vehicle: saline
[11] = endpoint: mean survival time, dose: 200.0 mg/kg/injection, schedule: Q04DX003 (ip), vehicle: saline
[12] = endpoint: mean survival time, dose: 400.0 mg/kg/injection, schedule: Q04DX003 (ip), vehicle: saline

Measured: T/C

Cc1cc2c(cc1C)C(=O)C(N(C)C)=CC2=O
inactive: [1] 102 % of control | [2] 98 % of control | [3] 91 % of control

CN(C)CC#N
inactive: endpoint: mean survival time, dose: 5.0 mg/kg/injection, schedule: Q01DX009 (ip), vehicle: saline sonified 97 % of control | endpoint: mean survival time, dose: 5.0 mg/kg/injection, schedule: Q04DX003 (ip), vehicle: saline 103 % of control | endpoint: mean survival time, dose: 10.0 mg/kg/injection, schedule: Q01DX009 (ip), vehicle: saline sonified 97 % of control | endpoint: mean survival time, dose: 10.0 mg/kg/injection, schedule: Q04DX003 (ip), vehicle: saline 97 % of control | endpoint: mean survival time, dose: 20.0 mg/kg/injection, schedule: Q01DX009 (ip), vehicle: saline sonified 98 % of control | endpoint: mean survival time, dose: 20.0 mg/kg/injection, schedule: Q04DX003 (ip), vehicle: saline 95 % of control

CNC(=O)Nc1ccncc1
inactive: [1] 97 % of control | [2] 102 % of control | [3] 102 % of control

O=c1c2ccccc2[nH]c2cccc([N+](=O)[O-])c12
inactive: [1] 102 % of control | [4] 94 % of control | [2] 98 % of control | [5] 94 % of control | [3] 96 % of control | [6] 91 % of control

CC1OC(O)CC(NC(=O)C(F)(F)F)C1O (stereo not drawn)
inactive: endpoint: mean survival time, dose: 25.0 mg/kg/injection, schedule: Q01DX005 (ip), vehicle: water 98 % of control | endpoint: mean survival time, dose: 50.0 mg/kg/injection, schedule: Q01DX005 (ip), vehicle: water 95 % of control | endpoint: mean survival time, dose: 100.0 mg/kg/injection, schedule: Q01DX005 (ip), vehicle: water 98 % of control | endpoint: mean survival time, dose: 200.0 mg/kg/injection, schedule: Q01DX005 (ip), vehicle: water 107 % of control | endpoint: mean survival time, dose: 400.0 mg/kg/injection, schedule: Q01DX005 (ip), vehicle: water 98 % of control

O=C(Nc1cccc([N+](=O)[O-])c1)c1ccc(Cl)cc1Cl
inactive: [1] 90 % of control | [2] 92 % of control | [3] 90 % of control

OCC(O)C(O)C(O)C(O)CO (stereo not drawn) (tested in a mixture with another compound)
inactive: endpoint: mean survival time, dose: 37.5 mg/kg/injection, schedule: Q01DX001 (ip), vehicle: saline 94 % of control | endpoint: mean survival time, dose: 75.0 mg/kg/injection, schedule: Q01DX001 (ip), vehicle: saline 96 % of control | [7] 88 % of control and 104 % of control | [4] 93 % of control and 90 % of control | endpoint: mean survival time, dose: 150.0 mg/kg/injection, schedule: Q01DX001 (ip), vehicle: saline 95 % of control | [8] 88 % of control and 98 % of control | [5] 95 % of control and 90 % of control | [9] 92 % of control and 93 % of control | [6] 97 % of control and 92 % of control

COCC/C(COC)=N/N
inactive: [7] 104 % of control | [1] 94 % of control | [8] 108 % of control | [9] 108 % of control

O=C(O)C1C2CC(C1C(=O)O)C(C(=O)O)C2C(=O)O (stereo not drawn)
inactive: [7] 94 % of control | [1] 87 % of control | [8] 88 % of control | [2] 87 % of control | [9] 95 % of control

CCc1ccc(S(=O)(=O)c2ccc(C)cc2)cc1
inactive: endpoint: mean survival time, dose: 75.0 mg/kg/injection, schedule: Q04DX003 (ip), vehicle: saline 100 % of control | endpoint: mean survival time, dose: 150.0 mg/kg/injection, schedule: Q04DX003 (ip), vehicle: saline 100 % of control | endpoint: mean survival time, dose: 300.0 mg/kg/injection, schedule: Q04DX003 (ip), vehicle: saline 100 % of control

CC(C)NC(=O)CCn1c(=O)c2ccccc2c(=O)n1C
inactive: endpoint: mean survival time, dose: 25.0 mg/kg/injection, schedule: Q04DX003 (ip), vehicle: saline 98 % of control | endpoint: mean survival time, dose: 50.0 mg/kg/injection, schedule: Q04DX003 (ip), vehicle: saline 98 % of control | [10] 96 % of control | [11] 106 % of control | [12] 101 % of control

CC1OC(O[C@H]2/C=C/C=C/C=C/C=C/C=C/C=C/C=C/[C@H](C)[C@@H](O)[C@@H](C)[C@H](C)OC(=O)C[C@H](O)C[C@H](O)CC[C@@H](O)[C@H](O)C[C@H](O)C[C@]3(O)C[C@H](O)[C@@H](C(=O)O)[C@H](C2)O3)C(O)C(N)C1O (stereo partly drawn)
inactive: endpoint: median survival time, dose: 2.0 mg/kg/injection, schedule: Q01DX009 (ip), vehicle: suspension in saline 97 % of control | endpoint: median survival time, dose: 4.0 mg/kg/injection, schedule: Q01DX009 (ip), vehicle: suspension in saline 102 % of control | endpoint: median survival time, dose: 8.0 mg/kg/injection, schedule: Q01DX009 (ip), vehicle: suspension in saline 102 % of control | endpoint: median survival time, dose: 16.0 mg/kg/injection, schedule: Q01DX009 (ip), vehicle: suspension in saline 97 % of control and 98 % of control | endpoint: median survival time, dose: 18.75 mg/kg/injection, schedule: Q01DX009 (ip), vehicle: suspension in saline 108 % of control | endpoint: median survival time, dose: 32.0 mg/kg/injection, schedule: Q01DX009 (ip), vehicle: suspension in saline 102 % of control and 105 % of control | endpoint: median survival time, dose: 37.5 mg/kg/injection, schedule: Q01DX009 (ip), vehicle: suspension in saline 104 % of control | endpoint: median survival time, dose: 64.0 mg/kg/injection, schedule: Q01DX009 (ip), vehicle: suspension in saline 101 % of control | endpoint: median survival time, dose: 75.0 mg/kg/injection, schedule: Q01DX009 (ip), vehicle: suspension in saline 104 % of control | endpoint: median survival time, dose: 128.0 mg/kg/injection, schedule: Q01DX009 (ip), vehicle: suspension in saline 105 % of control | endpoint: median survival time, dose: 150.0 mg/kg/injection, schedule: Q01DX009 (ip), vehicle: suspension in saline 112 % of control | endpoint: median survival time, dose: 300.0 mg/kg/injection, schedule: Q01DX009 (ip), vehicle: suspension in saline 106 % of control

CCCCN(CCCC)CC(O)c1cc(-c2ccc(Cl)cc2)nc2c(OC)ccc(OC)c12 (stereo not drawn)
inactive: [4] 98 % of control | [5] 102 % of control | [6] 98 % of control

NC(CS(=O)c1ccc([N+](=O)[O-])cc1Cl)C(=O)O (stereo not drawn)
inactive: [1] 96 % of control

CN=C(N)N/N=C(\c1ccccc1)c1ccc(Br)cc1
inactive: endpoint: median survival time, dose: 3.12 mg/kg/injection, schedule: Q01DX009 (ip), vehicle: saline 100 % of control | endpoint: median survival time, dose: 6.25 mg/kg/injection, schedule: Q01DX009 (ip), vehicle: saline 106 % of control | endpoint: median survival time, dose: 12.5 mg/kg/injection, schedule: Q01DX009 (ip), vehicle: saline 107 % of control | endpoint: median survival time, dose: 25.0 mg/kg/injection, schedule: Q01DX009 (ip), vehicle: saline 121 % of control

Nc1n[nH]c(=S)n1-c1ccccc1
inactive: endpoint: mean survival time, dose: 50.0 mg/kg/injection, schedule: Q01DX009 (ip), vehicle: acetone 98 % of control | endpoint: mean survival time, dose: 100.0 mg/kg/injection, schedule: Q01DX009 (ip), vehicle: acetone 93 % of control | endpoint: mean survival time, dose: 200.0 mg/kg/injection, schedule: Q01DX009 (ip), vehicle: acetone 98 % of control

O=C(C(Cl)Cl)N(O)c1ccccc1OCc1ccccc1
inactive: [4] 105 % of control | [5] 103 % of control | [6] 103 % of control

OCC1OC(n2cnc3cc(Cl)c(Cl)cc32)C(O)C1O (stereo not drawn)
inactive: endpoint: median survival time, dose: 25.0 mg/kg/injection, schedule: Q01DX009 (ip), vehicle: saline with Tween-80 97 % of control and 103 % of control | endpoint: median survival time, dose: 50.0 mg/kg/injection, schedule: Q01DX009 (ip), vehicle: saline with Tween-80 106 % of control | endpoint: median survival time, dose: 100.0 mg/kg/injection, schedule: Q01DX009 (ip), vehicle: saline with Tween-80 120 % of control and 110 % of control and 112 % of control | endpoint: median survival time, dose: 200.0 mg/kg/injection, schedule: Q01DX009 (ip), vehicle: saline with Tween-80 120 % of control

CCCCCCCCCCCCCCCCN(C)c1ccc(C(=O)OC)cc1[N+](=O)[O-]
inactive: endpoint: mean survival time, dose: 100.0 mg/kg/injection, schedule: Q01DX009 (ip), vehicle: Klucel (hydroxypropylcellulose) (HPC) 97 % of control | [10] 98 % of control | endpoint: mean survival time, dose: 200.0 mg/kg/injection, schedule: Q01DX009 (ip), vehicle: Klucel (hydroxypropylcellulose) (HPC) 101 % of control | [11] 91 % of control | endpoint: mean survival time, dose: 400.0 mg/kg/injection, schedule: Q01DX009 (ip), vehicle: Klucel (hydroxypropylcellulose) (HPC) 97 % of control | [12] 95 % of control

Source: PubChem BioAssay AID256 (DTP/NCI, 2004)
